Test results from ChEMBL document CHEMBL4184156, “Repurposing Hsp90 inhibitors as antibiotics targeting histidine kinases” (Bioorg Med Chem Lett, 2017).
Converted amounts (≈) assume the structure as drawn. The source made the active and inactive calls. The calls are words filed in the database; no cut-off is given here.

Columns and labels:
[1] = biological target: T1, Virulence sensor histidine kinase PhoQ (Salmonella typhimurium (strain LT2 / SGSC1412 / ATCC 700720), UniProt P0DM80); experiment: Displacement of TNP-ATP from recombinant Salmonella typhimurium GST-tagged DHp-catalytic domain PhoQ (332 to 487 residues) expressed in Escherichia coli XA90 aafter 10 mins by fluorescence assay; parameters: species or system Salmonella enterica subsp. enterica serovar Typhimurium
T1 sequence (P0DM80 whole entry): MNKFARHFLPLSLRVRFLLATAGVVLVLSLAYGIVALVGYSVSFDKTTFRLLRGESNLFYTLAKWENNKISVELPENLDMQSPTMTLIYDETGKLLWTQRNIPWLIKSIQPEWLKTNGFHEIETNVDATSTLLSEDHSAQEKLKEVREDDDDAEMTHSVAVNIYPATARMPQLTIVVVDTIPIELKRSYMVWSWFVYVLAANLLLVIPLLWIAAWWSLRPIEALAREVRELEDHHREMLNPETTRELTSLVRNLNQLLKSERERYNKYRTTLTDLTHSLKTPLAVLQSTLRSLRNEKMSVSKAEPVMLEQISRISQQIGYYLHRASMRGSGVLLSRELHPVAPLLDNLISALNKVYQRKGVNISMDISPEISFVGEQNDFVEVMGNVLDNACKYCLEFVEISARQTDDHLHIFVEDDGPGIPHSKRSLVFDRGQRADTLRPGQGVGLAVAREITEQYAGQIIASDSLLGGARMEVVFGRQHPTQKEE

[2] = biological target: T2, Virulence sensor histidine kinase PhoQ (Salmonella typhimurium (strain LT2 / SGSC1412 / ATCC 700720)) (UniProt P0DM80); experiment: (§1) Inhibition of recombinant Salmonella typhimurium N-terminal His6-SUMO-tagged DHp-catalytic domain PhoQ (257 to 487 residues) autophosphorylation expressed in Escherichia coli BL21(DE3) at 500 uM preincubated for 10 mins followed by [gamma-32P]-ATP addition after 30 mins by phosphotransferase dot blot assay relative to control; parameters: scale not given: the % may be the effect or the level left; conditions: Salmonella enterica subsp. enterica serovar Typhimurium
T2 sequence (whole entry): T1 sequence (P0DM80 whole entry)

[3] = biological target: T3, Histidine protein kinase DivJ (Caulobacter vibrioides (strain ATCC 19089 / CB15) (Caulobactercrescentus)) (UniProt Q03228); experiment: as §1, with “Caulobacter vibrioides” for “Salmonella typhimurium”, “His6-tagged” for “His6-SUMO-tagged”, “DivJ (188” for “PhoQ (257”, “585” for “487”, “15” for “30”; parameters: scale not given: the % may be the effect or the level left
T3 sequence (whole entry): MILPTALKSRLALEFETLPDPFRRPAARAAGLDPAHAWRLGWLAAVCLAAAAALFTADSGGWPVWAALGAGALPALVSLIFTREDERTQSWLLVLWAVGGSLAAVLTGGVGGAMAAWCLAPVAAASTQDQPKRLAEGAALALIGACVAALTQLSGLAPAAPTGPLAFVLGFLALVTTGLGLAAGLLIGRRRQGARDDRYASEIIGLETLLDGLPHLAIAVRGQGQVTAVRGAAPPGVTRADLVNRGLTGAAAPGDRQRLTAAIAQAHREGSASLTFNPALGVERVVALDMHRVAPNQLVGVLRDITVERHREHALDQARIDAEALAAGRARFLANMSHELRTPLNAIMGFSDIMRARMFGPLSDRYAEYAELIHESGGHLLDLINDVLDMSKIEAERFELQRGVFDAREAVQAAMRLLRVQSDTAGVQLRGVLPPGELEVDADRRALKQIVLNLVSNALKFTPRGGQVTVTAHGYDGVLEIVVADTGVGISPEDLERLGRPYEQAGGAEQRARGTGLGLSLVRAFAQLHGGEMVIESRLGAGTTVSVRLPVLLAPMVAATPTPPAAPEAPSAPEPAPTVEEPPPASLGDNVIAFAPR

[4] = biological target: T3, Histidine protein kinase DivJ (Caulobacter vibrioides (strain ATCC 19089 / CB15) (Caulobactercrescentus)); experiment: Inhibition of recombinant Caulobacter vibrioides N-terminal His6-tagged DHp-catalytic domain DivJ (188 to 585 residues) expressed in Escherichia coli BL21 (DE3) at 400 uM preincubated for 10 mins followed by [gamma-32P]-ATP addition after 15 mins by phosphotransferase dot blot assay
[5] = biological target: T2, Virulence sensor histidine kinase PhoQ (Salmonella typhimurium (strain LT2 / SGSC1412 / ATCC 700720)); experiment: Inhibition of recombinant Salmonella typhimurium N-terminal His6-SUMO-tagged PhoQ (257 to 487 residues) expressed in Escherichia coli BL21 (DE3) assessed as enzyme aggregation at 400 uM after 30 mins by native-PAGE analysis; conditions: Salmonella enterica subsp. enterica serovar Typhimurium
[6] = biological target: T2, Virulence sensor histidine kinase PhoQ (Salmonella typhimurium (strain LT2 / SGSC1412 / ATCC 700720)); experiment: Inhibition of recombinant Salmonella typhimurium N-terminal His6-SUMO-tagged PhoQ (257 to 487 residues) expressed in Escherichia coli BL21 (DE3) assessed as enzyme aggregation at 800 uM after 30 mins by native-PAGE analysis; conditions: Salmonella enterica subsp. enterica serovar Typhimurium
Escherichia coli [7] = experiment: Antibacterial activity against Escherichia coli DC2 after 24 hrs by broth dilution method; format: functional; conditions: DC2, 24 h
Bacillus subtilis [8] = experiment: Antibacterial activity against Bacillus subtilis YB886 after 24 hrs by broth dilution method; format: functional; conditions: YB886, 24 h
Caulobacter vibrioides = experiment: Antibacterial activity against Caulobacter crescentus NA1000 after 24 hrs by broth dilution method; format: functional; conditions: NA1000, 24 h
[9] = biological target: T4, Cell cycle histidine kinase CckA (Caulobacter vibrioides) (UniProt Q9X688); experiment: Binding affinity to recombinant Caulobacter vibrioides cell cycle histidine kinase CckA delta 3 mutant DHp domain (190 to 562 residues) expressed in Escherichia coli assessed as change in metlting temperature at 30 uM after 2 mins by SYPRO orange dye based DSF assay
T4 sequence (whole entry): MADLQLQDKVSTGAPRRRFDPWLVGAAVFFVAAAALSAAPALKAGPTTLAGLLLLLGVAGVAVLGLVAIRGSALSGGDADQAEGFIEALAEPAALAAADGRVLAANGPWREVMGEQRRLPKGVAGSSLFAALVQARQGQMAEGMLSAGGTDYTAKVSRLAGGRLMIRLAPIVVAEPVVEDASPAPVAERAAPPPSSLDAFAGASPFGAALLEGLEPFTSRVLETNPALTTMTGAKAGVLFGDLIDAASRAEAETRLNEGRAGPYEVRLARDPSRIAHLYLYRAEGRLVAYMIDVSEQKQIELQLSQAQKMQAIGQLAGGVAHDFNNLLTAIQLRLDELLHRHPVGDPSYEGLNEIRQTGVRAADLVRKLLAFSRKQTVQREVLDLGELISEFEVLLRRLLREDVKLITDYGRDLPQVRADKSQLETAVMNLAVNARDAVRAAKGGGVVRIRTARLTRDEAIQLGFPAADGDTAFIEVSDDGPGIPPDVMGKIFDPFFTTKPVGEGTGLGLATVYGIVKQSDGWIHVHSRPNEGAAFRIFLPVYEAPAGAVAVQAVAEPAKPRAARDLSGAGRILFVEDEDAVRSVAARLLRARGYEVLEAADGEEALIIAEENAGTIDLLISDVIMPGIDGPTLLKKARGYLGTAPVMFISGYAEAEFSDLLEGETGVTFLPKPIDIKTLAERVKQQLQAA

[10] = biological target: T3, Histidine protein kinase DivJ (Caulobacter vibrioides (strain ATCC 19089 / CB15) (Caulobactercrescentus)); experiment: Inhibition of recombinant Caulobacter vibrioides N-terminal His6-tagged DHp-catalytic domain DivJ (188 to 585 residues) expressed in Escherichia coli BL21 (DE3) at 800 uM preincubated for 10 mins followed by [gamma-32P]-ATP addition after 15 mins by phosphotransferase dot blot assay
[11] = Inhibition of recombinant full length yeast N-terminal His-tagged Hsp90 expressed in Escherichia coli BL21 incubated overnight in presence of ATP by malachite green dye based assay; parameters: species or system Saccharomyces cerevisiae
[12] = Hemolytic activity against sheep RBC at 0.5 mM after 30 mins relative to control; format: ADME, cell-based, Ovis aries, Erythrocyte; conditions: sheep red blood cells (erythrocytes), read-out: Activity
[13] = biological target: Cell cycle histidine kinase CckA (Caulobacter vibrioides, UniProt Q9X688); experiment: Inhibition of recombinant Caulobacter vibrioides cell cycle histidine kinase CckA deltaTM mutant DHp domain (70 to 691 residues) expressed in Escherichia coli in presence of varying levels of ATP measured every 60 secs for 2 hrs by PK/LDH enzyme coupled assay
[14] = system: Staphylococcus epidermidis; experiment: Antimicrobial activity against Staphylococcus epidermidis ATCC 35984 after 10 hrs; format: functional; conditions: ATCC 35984, 10 h
[15] = biological target: T5, Sensor protein kinase WalK family protein (Streptococcus pneumoniae PCS8203, UniProt A0A0H2UQD0); experiment: Inhibition of Streptococcus pneumoniae VicK preincubated for 30 mins followed by [gamma-33P]ATP addition after 30 mins by SDS-PAGE method
T5 sequence (A0A0H2UQD0 whole entry): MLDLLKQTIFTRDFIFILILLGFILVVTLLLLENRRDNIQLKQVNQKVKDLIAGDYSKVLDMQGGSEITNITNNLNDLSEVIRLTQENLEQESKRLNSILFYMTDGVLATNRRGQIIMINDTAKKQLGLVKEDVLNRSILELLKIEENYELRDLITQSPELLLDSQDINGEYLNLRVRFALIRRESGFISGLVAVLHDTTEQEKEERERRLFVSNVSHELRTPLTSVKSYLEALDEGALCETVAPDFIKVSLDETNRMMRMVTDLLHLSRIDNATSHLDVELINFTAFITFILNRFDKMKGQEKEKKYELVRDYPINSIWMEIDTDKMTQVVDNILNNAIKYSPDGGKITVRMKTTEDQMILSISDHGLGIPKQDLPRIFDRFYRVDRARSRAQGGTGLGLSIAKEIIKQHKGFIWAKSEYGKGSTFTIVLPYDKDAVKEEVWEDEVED

Bacillus subtilis [16] = experiment: Antimicrobial activity against Bacillus subtilis 3610 after 20 hrs by Mueller-Hinton Broth microdilution method; format: functional; conditions: subsp. subtilis str. NCIB 3610, 20 h
Escherichia coli [17] = experiment: Antimicrobial activity against Escherichia coli DC2 after 20 hrs by Mueller-Hinton Broth microdilution method; format: functional; conditions: DC2, 20 h
[18] = biological target: T1, Virulence sensor histidine kinase PhoQ; experiment: Inhibition of recombinant Salmonella typhimurium N-terminal His6-SUMO-tagged DHp-catalytic domain PhoQ (257 to 487 residues) autophosphorylation expressed in Escherichia coli BL21 (DE3) preincubated for 10 mins followed by [gamma-32P]-ATP addition after 30 mins by phosphotransferase dot blot assay; parameters: species or system Salmonella enterica subsp. enterica serovar Typhimurium
[19] = biological target: T6, Cell cycle histidine kinase CckA (Caulobacter vibrioides, UniProt Q9X688); experiment: Competitive inhibition of Caulobacter vibrioides full length wild type cell cycle histidine kinase CckA deltaTM Escherichia coli BL21-AI in presence of varying levels of ATP measured every 60 secs for 2 hrs by Lineweaver-Burk plot analysis
T6 sequence (Q9X688 whole entry): T4 sequence (whole entry)

[20] = system: Histidine protein kinase DivJ (Caulobacter vibrioides); experiment: Inhibition of recombinant Caulobacter vibrioides N-terminal His6-tagged catalytic domain DivJ (188 to 585 residues) expressed in Escherichia coli BL21 (DE3) assessed as enzyme aggregation at 400 uM after 30 mins by native-PAGE analysis
[21] = compound: COc1ccc(-c2c(C)n[nH]c2-c2cc(Cl)c(O)cc2O)cc1; experiment: Competitive inhibition of Caulobacter vibrioides full length wild type Cell cycle histidine kinase CckA deltaTM expressed in Escherichia coli BL21-AI assessed as enzyme Km in presence of varying levels of ATP measured every 60 secs for 2 hrs by Lineweaver-Burk plot analysis

With `CC(C)=CCc1c(O)cc2occ(Cl)c(=O)c2c1O` the Kd [1] was 391 µM.

For `CCc1cc(-c2[nH]nc(C)c2-c2ccc3c(c2)OCCO3)c(O)cc1O`, the Activity [2] was 9%, the Activity [3] was 70% and the inhibition [4] was “inactive”. The inhibition [5] was “inactive”, the inhibition [6] was “inactive” and the MIC (Escherichia coli [7]) was 37.5 to 75 µM (≈ 13.2 to 26.4 µg/mL). It also gave an MIC (Bacillus subtilis [8]) of 112 µM (≈ 39.6 µg/mL), an MIC (Caulobacter vibrioides) of 150 to 225 µM (≈ 52.9 to 79.3 µg/mL) and a ΔTm [9] of 4 °C. For the same molecule, the inhibition [10] was “Active”.

`C[C@@H]1C[C@H]2O[C@@H]2/C=C\C=C\C(=O)Cc2c(Cl)c(O)cc(O)c2C(=O)O1` [RADICICOL] gave an IC50 [11] of 0.26 µM, an Activity [2] of 86% and an Activity [3] of 123%. The hemolysis at 0.5 h, 500 µM [12] was 0%, the MIC (Escherichia coli [7]) was > 300 µM and the MIC (Bacillus subtilis [8]) was > 300 µM. For the same molecule, the MIC (Caulobacter vibrioides) was > 300 µM, the ΔTm [9] was 0.9 °C and the IC50 [13] was 184 µM.

`O=C(O)c1ccc(-c2ccc(/C=C3\S/C(=N\c4ccccc4)N(c4ccc(F)cc4)C3=O)s2)cc1` gave an MIC [14] of 0.75 µg/mL (≈ 1.5 µM).

For `Nc1nc2ccc(Oc3ccc4nc(N)sc4c3)cc2s1`, the IC50 [15] was 75 µM, the MIC (Bacillus subtilis [16]) was 49 to 64 µg/mL (≈ 156 to 204 µM) and the MIC (Escherichia coli [17]) was 32 to 64 µg/mL (≈ 102 to 204 µM).

With `COc1ccc(-c2c(-c3cc(Cl)c(O)cc3O)n[nH]c2C)cc1` the IC50 [18] was 238 µM, the hemolysis at 0.5 h, 500 µM [12] was 3% and the Ki [19] was 3.8 µM. The IC50 [13] was 12.3 to 14 µM.

In the case of `COc1ccc(-c2c(C)n[nH]c2-c2cc(Cl)c(O)cc2O)cc1`, the Activity [2] is reported as 66%, the Activity [3] is reported as 118% and the inhibition [5] is reported as “inactive”. The MIC (Escherichia coli [7]) was 37.5 to 75 µM (≈ 12.4 to 24.8 µg/mL), the MIC (Bacillus subtilis [8]) was 150 to 225 µM (≈ 49.6 to 74.4 µg/mL) and the MIC (Caulobacter vibrioides) was 225 µM (≈ 74.4 µg/mL). For the same molecule, the ΔTm [9] was 5 °C and the inhibition [20] was “inactive”.

B1: Cell cycle histidine kinase CckA (Caulobacter vibrioides), Q9X688 (protein)
chain: T4 sequence (whole entry)
Work on B1 yielded a Km [21] of 17.9 µM.
